This assay concerns Micrococcus luteus. Put plainly: MIC liquid tube assay (antibiotic activity). The assay is classed as cell-based. The following applies: liquid tube assay in nutrient broth, 37° C., growth observed after 24 and 48 hours, MIC = last concentration where growth inhibited. On the procedure:
Micrococcus luteus from stock was streaked on a nutrient agar plate to confirm colony morpbiology, colour and purity. After 24 hours incubation at 37° C. an isolated colony is picked and inoculated into 10 ml of nutrient broth. This is incubated overnight at 37° C. and is subsequently used as the inoculum. 10 mg of each of the test compounds is weighed and dissolved in 10 ml of […] methanol in sterile 20 ml universal containers. This is then diluted with ringers buffer solution to give a concentration of 1 mg/ml. Quantitation of activity is determined using an MIC ([…]) liquid tube assay. For each test substance the following concentrations are set up: 10 μg/ml, 5 μg/ml, 1 μg/ml, 0.5 μg/ml, 0.1 μg/ml, 0.05 μg/ml and 0.01 μg/ml. Each contained nutrient broth and 0.1 ml of overnight culture of Micrococcus luteus. The tubes were incubated at 37° C. and observed for growth after 24 hours and 48 hours. Growth is assessed by dense turbidity, optical density at 660 nm using a spectrophotometer or clarity. The MIC is the last concentration where growth inhibited.

Setting [1] is: Micrococcus luteus, read-out: MIC.

≈ marks a conversion by molar mass, not a printed value. Like-named read-outs stand apart in the source and are kept apart here.

Drawing on patent US6599885B2, “Derivatives of erythromycin, clarithromycin, roxithromycin or azithromycin with antibiotic and mucolytic activity” (Russinsky Limited, priority 1998, dated 2003), this text covers MIC for seven compounds.

With “Clarithromycin-N-Acetylcysteinate-[1:4]-Salt [Clarithromycin-N-acetylcysteinate [1:4]]”, the MIC (in general, the lowest concentration that inhibits growth of the organism) is 0.01 to 0.05 µg/mL.

For “Erythromycin Propionate-N-Acetylcysteine-[1:1]-Salt [Erythromycin-N-acetylcysteinate [1:1]]”, the MIC is 0.01 to 0.05 µg/mL.

In the case of `CC[C@H]1OC(=O)[C@H](C)[C@@H](O[C@H]2C[C@@](C)(OC)[C@@H](O)[C@H](C)O2)[C@H](C)[C@@H](O[C@@H]2O[C@H](C)C[C@H](N(C)C)[C@H]2O)[C@](C)(OC)C[C@@H](C)C(=O)[C@H](C)[C@@H](O)[C@]1(C)O` [Clarithromycin], the MIC under setting [1] is at most 0.01 µg/mL.

Turning to “Erythromycin Propionate-N-Acetylcysteine [1:4]-Adduct [Erythromycin-N-acetylcysteinate [1:4]]”, the MIC is 0.05 to 0.1 µg/mL.

Regarding `CC(=O)N[C@@H](CS)C(=O)O.CC[C@H]1OC(=O)[C@H](C)[C@@H](O[C@H]2C[C@@](C)(OC)[C@@H](O)[C@H](C)O2)[C@H](C)[C@@H](O[C@@H]2O[C@H](C)C[C@H](N(C)C)[C@H]2O)[C@](C)(OC)C[C@@H](C)C(=O)[C@H](C)[C@@H](O)[C@]1(C)O` [Clarithromycin-N-acetylcysteinate [1:1], Clarithromycin-N-Acetylcysteinate-[1:1]-Salt], the MIC entry is listed as “≦0.01 μg/ml”.

As to “Erythromycin Propionate-N-Acetylcysteine [1:1.8]-Adduct [Erythromycin-N-acetylcysteinate [1:1.8]]”, the minimum inhibitory concentration (MIC) result is “≦0.01 μg/ml”.

As to `CCC(=O)O[C@H]1[C@H](O[C@@H]2[C@@H](C)[C@H](O[C@H]3C[C@@](C)(OC)[C@@H](O)[C@H](C)O3)[C@@H](C)C(=O)O[C@H](CC)[C@@](C)(O)[C@H](O)[C@@H](C)C(=O)[C@H](C)C[C@@]2(C)O)O[C@H](C)C[C@@H]1N(C)C` [Erythromycin-propionate, Erythromycin Propionate, reference compound], the MIC under setting [1] was 0.01 to 0.05 µg/mL (≈ 0.0127 to 0.0633 µM).
